Laboratory results reported in patent publication US20260144769A1, “4-PHENYLBUTYRATE RESTORED GABA UPTAKE AND REDUCED SEIZURES IN SLC6A1 VARIANT-MEDIATED DISORDERS” (Vanderbilt University, priority 2022, published 2026).

Assays:
[1] = test system: GAT-1 in human iPSC-derived neurons; assay: 3H GABA uptake, human iPSC-derived neurons; format: cell-based; settings: PBA treated human iPSC-derived neurons; PBA 2 mM, 24 hrs
Method: Live images of human neural progenitor cells (NPCs), astrocytes and GABAergic inhibitory neurons differentiated from the human induced pluripotent stem cells (iPSCs) on the day of experiment. […] The DMSO treated corrected or patient cells was taken as 1. […] GABA flux was measured after 30 min transport at room temperature. The influx of GABA, expressed in pmol/μg protein/min, was averaged from duplicates for each condition and for each transfection. The average counting was DMSO treated condition taken as 1. In FIG. 5B, FIG. 5D and FIG. 5F, 966 stands for CI-966 (50 μM) and 711 stands for NNC-711 (35 μM) that was applied 30 min to the astrocytes transfected with the wildtype GAT-1^YFP before preincubation and removed during preincubation. In FIGS. 5B and D, ***p<0.001 vs. corrected DMSO treated. § § <0.01, § § § p<0.001 vs. patient DMSO treated. […] In FIGS. 5B-E, n=4-8 batches of cells. In FIG. 5F, n=4-5 different transfections). Unpaired t test was used for FIG. 5C and FIG. 5E. […] Values were expressed as mean±S.E.M.). […]
Briefly, cells were cultured in […] dishes for 3 days before the GABA uptake experiment in DMEM with 10% fetal bovine serum and 1% penicillin/streptomycin. […] Glacial acetic acid was added, and lysates were then determined on a liquid scintillator with QuantaSmart. […]

GAT-1 = GAT-1 protein expression (SDS-PAGE, anti-GAT-1 blot), patient human astrocytes; format: cell-based; settings: PBA 2 mM
Method: FIGS. 6A-B show human patient corrected (isogenic control, Corr) or uncorrected patient (Pat) astrocytes at day 30-35 after differentiation from iPSCs were co-transfected with the endoplasmic reticulum (ER) marker ER^CFP in combination with the wildtype or the mutant GAT-1^YFP cDNAs (0.5 μg: 0.5 μg per a 35 mm^2 dish) for 48 hrs before confocal microscopy analysis. Confocal images were acquired in live astrocytes under 63× objective with zoom under 2.5×. […] FIG. 6B represents the ER overlapping signal of GAT-1^YFP analyzed by Metamorph. […] Membranes were blotted with a rabbit polyclonal anti-GAT-1 antibody (FIG. 6C). The lysates of Chinese hamster ovary (CHO) cells were used as control. […] Values were expressed as mean±S.E.M.). […]
Data were expressed as mean±SEM. Proteins were quantified by Odyssey software and data were normalized to loading controls and then to the wildtype subunit protein, which was arbitrarily taken as 1 in each experiment. Fluorescence intensities from confocal microscopy experiments were determined using MetaMorph imaging software, and the measurements were carried out in ImageJ. […]

## O=C(O)CCCc1ccccc1 [PBA, 4-phenylbutyric acid]
[1]
  increase of GABA uptake: ~20%
GAT-1; 24 hrs
  GAT-1 expression normalized to its own genotype DMSO treated: 1.39±0.046
GAT-1; 24 hrs (52.2% untreated)
  total GAT-1 protein of the patient astrocytes as % of the corrected: 73.2%
